Test results published in ChEMBL document CHEMBL3621049, “Imidazole derivatives show anticancer potential by inducing apoptosis and cellular senescence” (2014).
The source made the active and inactive calls.

Assays:
Type in all cases: functional, cell-based
[1] = test system: NCI-H23; assay: Growth inhibition of human NCI-H23 cells at 10 uM by sulforhodamine B assay
[2] = test system: UACC-257; assay: Growth inhibition of human UACC257 cells at 10 uM by sulforhodamine B assay
[3] = test system: OVCAR-5; assay: Growth inhibition of human OVCAR5 cells at 10 uM by sulforhodamine B assay
[4] = test system: MDA-MB-435; assay: Growth inhibition of human MDA-MB-435 cells at 10 uM by sulforhodamine B assay
[5] = test system: IGROV-1; assay: Growth inhibition of human IGROV1 cells at 10 uM by sulforhodamine B assay
[6] = test system: LOX IMVI; assay: Growth inhibition of human LOXIMVI cells at 10 uM by sulforhodamine B assay
[7] = test system: HOP-92; assay: Growth inhibition of human HOP92 cells at 10 uM by sulforhodamine B assay
[8] = test system: A498; assay: Growth inhibition of human A498 cells at 10 uM by sulforhodamine B assay
[9] = test system: SNB-19; assay: Growth inhibition of human SNB19 cells at 10 uM by sulforhodamine B assay
[10] = test system: SF-539; assay: Growth inhibition of human SF539 cells at 10 uM by sulforhodamine B assay
[11] = test system: SK-MEL-5; assay: Growth inhibition of human SK-MEL-5 cells at 10 uM by sulforhodamine B assay
[12] = test system: OVCAR-8; assay: Growth inhibition of human OVCAR8 cells at 10 uM by sulforhodamine B assay
[13] = test system: PC-3; assay: Growth inhibition of human PC3 cells at 10 uM by sulforhodamine B assay
[14] = test system: ACHN; assay: Growth inhibition of human ACHN cells at 10 uM by sulforhodamine B assay
[15] = test system: SNB-75; assay: Growth inhibition of human SNB75 cells at 10 uM by sulforhodamine B assay
[16] = test system: HOP-62; assay: Growth inhibition of human HOP62 cells at 10 uM by sulforhodamine B assay
[17] = test system: OVCAR-3; assay: Growth inhibition of human OVCAR3 cells at 10 uM by sulforhodamine B assay
[18] = test system: CAKI-1; assay: Growth inhibition of human Caki1 cells at 10 uM by sulforhodamine B assay
[19] = test system: SK-MEL-28; assay: Growth inhibition of human SK-MEL-28 cells at 10 uM by sulforhodamine B assay
[20] = test system: NCI/ADR-RES; assay: Growth inhibition of human NCI/ADR-RES cells at 10 uM by sulforhodamine B assay
[21] = test system: U-251; assay: Growth inhibition of human U251 cells at 10 uM by sulforhodamine B assay
[22] = test system: NCI-H322M; assay: Growth inhibition of human NCI-H322M cells at 10 uM by sulforhodamine B assay
[23] = test system: SR; assay: Growth inhibition of human SR cells at 10 uM by sulforhodamine B assay
[24] = test system: 786-0; assay: Growth inhibition of human 786-0 cells at 10 uM by sulforhodamine B assay
[25] = test system: NCI-H460; assay: Growth inhibition of human NCI-H460 cells at 10 uM by sulforhodamine B assay
[26] = test system: MDA-MB-231; assay: Growth inhibition of human MDA-MB-231 cells at 10 uM by sulforhodamine B assay
[27] = test system: Hs-578T; assay: Growth inhibition of human Hs 578T cells at 10 uM by sulforhodamine B assay
[28] = test system: SW-620; assay: Growth inhibition of human SW620 cells at 10 uM by sulforhodamine B assay
[29] = test system: UO-31; assay: Growth inhibition of human UO31 cells at 10 uM by sulforhodamine B assay
[30] = test system: BT-549; assay: Growth inhibition of human BT549 cells at 10 uM by sulforhodamine B assay
[31] = test system: HL-60(TB); assay: Growth inhibition of human HL-60(TB) cells at 10 uM by sulforhodamine B assay
[32] = test system: NCI-H226; assay: Growth inhibition of human NCI-H226 cells at 10 uM by sulforhodamine B assay
[33] = test system: TK-10; assay: Growth inhibition of human TK10 cells at 10 uM by sulforhodamine B assay
[34] = test system: MDA-MB-468; assay: Growth inhibition of human MDA-MB-468 cells at 10 uM by sulforhodamine B assay
[35] = test system: MOLT-4; assay: Growth inhibition of human MOLT4 cells at 10 uM by sulforhodamine B assay
[36] = test system: SK-MEL-2; assay: Growth inhibition of human SK-MEL-2 cells at 10 uM by sulforhodamine B assay
[37] = test system: NCI-H522; assay: Growth inhibition of human NCI-H522 cells at 10 uM by sulforhodamine B assay
[38] = test system: UACC-62; assay: Growth inhibition of human UACC62 cells at 10 uM by sulforhodamine B assay
[39] = test system: OVCAR-4; assay: Growth inhibition of human OVCAR4 cells at 10 uM by sulforhodamine B assay
[40] = test system: KM12; assay: Growth inhibition of human KM12 cells at 10 uM by sulforhodamine B assay
[41] = test system: COLO 205; assay: Growth inhibition of human COLO205 cells at 10 uM by sulforhodamine B assay
[42] = test system: RPMI-8226; assay: Growth inhibition of human RPMI8226 cells at 10 uM by sulforhodamine B assay
[43] = test system: HT-29; assay: Growth inhibition of human HT-29 cells at 10 uM by sulforhodamine B assay
[44] = test system: SN12C; assay: Growth inhibition of human SN12C cells at 10 uM by sulforhodamine B assay
[45] = test system: RXF 393; assay: Growth inhibition of human RXF393 cells at 10 uM by sulforhodamine B assay
[46] = test system: T47D; assay: Growth inhibition of human T47D cells at 10 uM by sulforhodamine B assay
[47] = test system: Malme-3M; assay: Growth inhibition of human MALME-3M cells at 10 uM by sulforhodamine B assay
[48] = test system: SK-OV-3; assay: Growth inhibition of human SKOV3 cells at 10 uM by sulforhodamine B assay
[49] = test system: SF-295; assay: Growth inhibition of human SF295 cells at 10 uM by sulforhodamine B assay
[50] = test system: HCT-15; assay: Growth inhibition of human HCT15 cells at 10 uM by sulforhodamine B assay
[51] = test system: HCT-116; assay: Growth inhibition of human HCT116 cells at 10 uM by sulforhodamine B assay
[52] = test system: MCF7; assay: Growth inhibition of human MCF7 cells at 10 uM by sulforhodamine B assay
[53] = test system: M14; assay: Growth inhibition of human M14 cells at 10 uM by sulforhodamine B assay
[54] = test system: DU-145; assay: Growth inhibition of human DU145 cells at 10 uM by sulforhodamine B assay
[55] = test system: HCC 2998; assay: Growth inhibition of human HCC2998 cells at 10 uM by sulforhodamine B assay
[56] = test system: SF-268; assay: Growth inhibition of human SF268 cells at 10 uM by sulforhodamine B assay
[57] = test system: CCRF-CEM; assay: Growth inhibition of human CCRF-CEM cells at 10 uM by sulforhodamine B assay
[58] = test system: K562; assay: Growth inhibition of human K562 cells at 10 uM by sulforhodamine B assay
[59] = test system: A549; assay: Growth inhibition of human A549/ATCC cells at 10 uM by sulforhodamine B assay

Measured: growth inhibition (GI)

COc1ccc(-c2nc(-c3ccccc3)c(-c3ccccc3)[nH]2)cc1OC1CCCC1
active: all assays above

C#CCn1c(-c2ccc(OC)c(OC3CCCC3)c2)nc(-c2ccccc2)c1-c1ccccc1
active: all assays above
